Reference: PMC6522510 (Nature Communications, 2019)

Columns and labels:
Design in all cases: species or system AML cell lines (8); Primary HTS, single concentration about 10 uM, Cell Titer Glo viability; log10 luminescence, per cent inhibition relative to cycloheximide control
Conditions in all cases: 72 h, relative to cycloheximide control, log10 luminescence; inhibitor
U937 = system: U937
M07e = system: M07e
ML-2 = system: ML-2
MOLM-13 = system: MOLM-13
CMS = system: CMS
CHRF288-11 = system: CHRF288-11
CMK = system: CMK
MV4-11 = system: MV4-11

SMILES	U937 %inh (U937) [%]	M07e %inh (M07e) [%]	ML-2 %inh (ML-2) [%]	MOLM-13 %inh (MOLM-13) [%]	CMS %inh (CMS) [%]	CHRF288-11 %inh (CHRF288-11) [%]	CMK %inh (CMK) [%]	MV4-11 %inh (MV4-11) [%]
Cn1c(=O)c(Oc2ccccc2F)cc2cnc(NC3CCOCC3)nc21 [SJ000581061-1]	1.19	6.564	3.823	-1.076	1.876	11.16	-2.528	0.7758
Cn1c(=O)c(Oc2ccc(F)cc2F)cc2cnc(NC3CCS(=O)(=O)CC3)nc21 [SJ000581062-1]	4.309	3.904	1.685	-0.445	-1.245	0.18	-3.198	-0.9313
O=C1NC(=NCC(CO)c2ccccc2)S/C1=C\c1ccc2ncccc2c1 (stereo not drawn) [SJ000581063-1]	16.39	4.562	3.168	2.415	4.364	1.779	-3.487	53.98
Cn1cc(C2=C(c3cn(C)c4ccc(OCc5ccccc5)cc34)C(=O)NC2=O)c2ccccc21 [SJ000581064-1]	-0.03201	0.1859	-0.03114	-0.8092	2.588	7.008	-3.355	0.7902
O=C1C(c2c[nH]c3ccccc23)=C(c2c[nH]c3ccccc23)C(=O)N1O [SJ000581067-1]	-1.683	0.7451	-0.2137	0.2373	-0.1746	18.95	-5.714	1.166
Cn1cc(C2=C(c3cn(C)c4cc(C(N)=O)ccc34)C(=O)NC2=O)c2ccccc21 [SJ000581068-1]	75.21	58.86	54.4	63.24	51.9	59.82	87.67	76.64
Cn1cc(C2=C(c3c[nH]c4ccccc34)C(=O)NC2=O)c2ccccc21 [SJ000581069-1]	53.14	40.86	39.66	79.5	13.88	37	44.1	15.94
COc1cccc2c1c(C1=C(c3cn(C)c4ccccc34)C(=O)NC1=O)cn2C [SJ000581070-1]	-0.4175	5.504	-0.1682	2.978	-1.314	8.87	10.2	0.2803
CN=C1NC(=O)/C(=C/c2ccc3ncccc3c2)S1 [SJ000581072-1]	7.703	18.48	4.634	28.17	9.143	174.6	44.3	9.718
O=C1NC(=NCc2ccccc2)S/C1=C\c1ccc2ncccc2c1 [SJ000581073-1]	3.079	12.28	2.983	18.77	5.2	5.173	48.96	27.42
CS(=O)(=O)CCCn1c(=O)c(Oc2ccc(F)cc2F)cc2cnc(NC3CCOCC3)nc21 [SJ000581074-1]	1.649	4.622	1.736	-2.241	-2.642	5.377	-0.8153	-0.6859
O=C1NC(=O)C(c2c[nH]c3ccccc23)=C1c1ccccc1 [SJ000581075-1]	2.672	3.019	1.922	-2.51	-0.679	16.2	-2.624	1.744
Nc1c(C(=O)c2cccc(-c3ccncc3)c2)cnn1-c1ccc(F)cc1F [SJ000581077-1]	32.29	29.92	15.89	13.91	10.55	21.24	75.1	3.251
Cn1cc(C2=C(c3cn(C)c4cc(Cl)ccc34)C(=O)NC2=O)c2ccccc21 [SJ000581078-1]	87.46	100	61.36	85.69	103.6	127	127.5	84.42
Cc1ccc2c(c1)c(C1=C(c3cn(C)c4ccccc34)C(=O)NC1=O)cn2C [SJ000581079-1]	21.19	21.17	12.05	61.76	12.87	31.79	50.85	11.84
Cn1cc(C2=C(c3c4n(c5ccccc35)CCNC4)C(=O)NC2=O)c2ccccc21 [SJ000581080-1]	18.44	25.69	12.57	62.95	16.83	19.49	60.56	15.28
COc1ccc(OC)c(C2=C(c3cn(C)c4ccccc34)C(=O)NC2=O)c1 [SJ000581081-1]	-0.9957	2.921	-0.4206	-2.282	0.8246	7.567	3.003	1.033
COc1ccc2c(C3=C(c4cn(C)c5ccccc45)C(=O)NC3=O)cn(C)c2c1 [SJ000581082-1]	79.84	103.9	51.13	81.86	102.2	125.3	107.7	77.51
O=[N+]([O-])c1ccc2c(c1)C(c1ccccc1Cl)=Nc1cn[nH]c1N2 [SJ000581083-1]	-1.165	4.12	-0.08337	-2.48	-0.274	-0.2746	-5.045	0.3353
Cn1cc(C2=C(c3cn(C)c4c(N)cccc34)C(=O)NC2=O)c2ccccc21 [SJ000581084-1]	30.59	30.04	31.97	57.26	26.64	31.5	34.34	35.68
COC[C@H](N=C1NC(=O)/C(=C/c2ccc3ncccc3c2)S1)c1ccccc1 [SJ000581086-1]	4.246	15.62	2.549	-1.579	4.472	2.677	5.986	-0.3199
Fc1ccc(-c2c(-c3ccncc3)[nH]c3cccnc23)cc1 [SJ000581088-1]	1.73	3.19	-1.446	-2.723	0.767	1.888	-0.07997	0.5271
N#CCn1c(=O)c(Oc2ccc(F)cc2F)cc2cnc(NC3CCOCC3)nc21 [SJ000581089-1]	0.6532	5.15	0.2559	79.15	1.167	0.7869	1.27	0.2945
Nc1c(C(=O)c2cccc(C#CCN3CCCCC3)c2)cnn1-c1ccc(F)cc1 [SJ000581090-1]	7.38	8.075	0.9731	0.3011	8.688	2.1	-1.859	1.177
